# Biological target: T1, Recombinant human liver GK1 (GST-GK) (Homo sapiens, UniProt P35557)
# T1 construct: made in house; host or cells: E. coli
# T1 sequence (P35557 1-466 isoform P35557-2): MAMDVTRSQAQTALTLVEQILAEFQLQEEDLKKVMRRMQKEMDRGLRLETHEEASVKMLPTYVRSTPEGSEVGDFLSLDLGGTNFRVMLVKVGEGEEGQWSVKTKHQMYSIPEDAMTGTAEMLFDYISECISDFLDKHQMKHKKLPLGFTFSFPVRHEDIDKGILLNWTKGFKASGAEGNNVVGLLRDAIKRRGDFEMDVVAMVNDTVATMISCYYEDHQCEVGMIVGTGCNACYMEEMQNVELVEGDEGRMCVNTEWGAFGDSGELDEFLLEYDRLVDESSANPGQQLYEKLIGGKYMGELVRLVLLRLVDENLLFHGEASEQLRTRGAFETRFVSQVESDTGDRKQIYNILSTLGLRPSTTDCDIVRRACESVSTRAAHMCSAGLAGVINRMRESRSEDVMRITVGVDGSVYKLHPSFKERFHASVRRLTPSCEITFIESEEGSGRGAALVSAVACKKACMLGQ
# Experiment: In vitro glucokinase activity (G6PDH-coupled NADH assay)
# Format: biochemical
# Conditions: 30° C., 5 mM D-glucose, 10% DMSO
# How it was run: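 Activation measured as the rate of OD340 rise from G6PDH-coupled NADH production, relative to 10% DMSO control, reported as SC1.5 (concentration for 50% activity increase). Conditions: 30° C, pH 7.1 Hepes, 5 mM glucose, 1 mM ATP, purified recombinant GST-human GK1, compound preincubated 10 min before enzyme addition.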
row,SMILES,SC1.5 (concentration of activator that produced a 50% increase in the activity of GK) [µM]
1,"COC(=O)c1ccc(NC(=O)C(CC2CCOCC2)N2CC(Oc3c(F)cccc3F)=CC2=O)nc1 (stereo not shown) [Example 40, 6-[2-[4-(2,6-difluoro-phenoxy)-2-oxo-2,5-dihydro-pyrrol-1-yl]-3-(tetrahydro-pyran-4-yl)-propionylamino]-nicotinic acid methyl ester]",0.19
2,"CC(C)(O)Cn1ccc(NC(=O)[C@H](CC2CCCCC2)N2CC(Oc3ccc(Cl)cc3Cl)=CC2=O)n1 [Example 202, (S)-3-cyclohexyl-2-[4-(2,4-dichloro-phenoxy)-2-oxo-2,5-dihydro-pyrrol-1-yl]-N-[1-(2-hydroxy-2-methyl-propyl)-1H-pyrazol-3-yl]-propionamide]",0.012
3,"CSc1ccccc1OC1=CC(=O)N([C@@H](CC2CCCCC2)C(=O)Nc2ccn(CC(C)(C)O)n2)C1 [Example 196, (S)-3-cyclohexyl-N-[1-(2-hydroxy-2-methyl-propyl)-1H-pyrazol-3-yl]-2-[4-(2-methylsulfanyl-phenoxy)-2-oxo-2,5-dihydro-pyrrol-1-yl]-propionamide]",0.007
4,"CC[C@@H](C)CC(C(=O)Nc1ccn(C[C@@H]2COC(C)(C)O2)n1)N1CC(Oc2ccccc2Cl)=CC1=O (stereo partly drawn) [Example 252, (R)-2-[4-(2-Chloro-phenoxy)-2-oxo-2,5-dihydro-pyrrol-1-yl]-4-methyl-hexanoic acid [1-((R)-2,2-dimethyl-[1,3]dioxolan-4-ylmethyl)-1H-pyrazol-3-yl]-amide]",0.197
5,"COc1cccc(OC2=CC(=O)N([C@@H](CC3CCCCC3)C(=O)Nc3ccn(CC(C)(C)O)n3)C2)c1Cl [Example 57, (S)-2-[4-(2-Chloro-3-methoxy-phenoxy)-2-oxo-2,5-dihydro-pyrrol-1-yl]-3-cyclohexyl-N-[1-(2-hydroxy-2-methyl-propyl)-1H-pyrazol-3-yl]-propionamide]",0.012
6,CC(C)C[C@@H](C(=O)Nc1ccn(C[C@@H]2C[C@H](CC(=O)OC(C)(C)C)OC(C)(C)O2)n1)N1CC(Oc2ccccc2Cl)=CC1=O [Example 192],0.412
7,"CCOc1cccc(OC2=CC(=O)N([C@@H](CC(C)C)C(=O)Nc3ccn(C[C@@H](O)CO)n3)C2)c1F [Example 115, (S)-2-[4-(3-Ethoxy-2-fluoro-phenoxy)-2-oxo-2,5-dihydro-pyrrol-1-yl]-4-methyl-pentanoic acid [1-((R)-2,3-dihydroxy-propyl)-1H-pyrazol-3-yl]-amide]",0.027
8,"CC(C)(O)Cn1ccc(NC(=O)[C@H](CC2CCCCC2)N2CC(Oc3c(F)ccc(Cl)c3F)=CC2=O)n1 [Example 72, (S)-2-[4-(3-Chloro-2,6-difluoro-phenoxy)-2-oxo-2,5-dihydro-pyrrol-1-yl]-3-cyclohexyl-N-[1-(2-hydroxy-2-methyl-propyl)-1H-pyrazol-3-yl]-propionamide]",0.024
9,"Cc1cccc(OC2=CC(=O)N([C@@H](CC(C)C)C(=O)Nc3ccn(CCO[Si](C)(C)C(C)(C)C)n3)C2)c1F [Example 132, (S)-2-[4-(2-Fluoro-3-methyl-phenoxy)-2-oxo-2,5-dihydro-pyrrol-1-yl]-4-methyl-pentanoic acid {1-[2-(t-butyl-dimethyl-silanyloxy)-ethyl]-1H-pyrazol-3-yl}-amide]",0.577
10,"O=C(Nc1ccn(C[C@@H](O)CO)n1)[C@H](Cc1c(F)cccc1F)N1CC(Oc2ccccc2Cl)=CC1=O [Example 185, (S)-2-[4-(2-chloro-phenoxy)-2-oxo-2,5-dihydro-pyrrol-1-yl]-N-[1-((R)-2,3-dihydroxy-propyl)-1H-pyrazol-3-yl]-3-(2,6-difluorophenyl)-propionamide]",0.371
11,COC1=CC(=O)N([C@@H](CC2CCCC2)C(=O)Nc2nc(C)ns2)C1 [Example 4],6.186
12,"CC(C)C[C@@H](C(=O)Nc1ccn(C[C@@H]2COC(C)(C)O2)n1)N1CC(Oc2cccc(Cl)c2Cl)=CC1=O [Example 79, (S)-2-[4-(2,3-Dichloro-phenoxy)-2-oxo-2,5-dihydro-pyrrol-1-yl]-4-methyl-pentanoic acid [1-((R)-2,2-dimethyl-[1,3]dioxolan-4-yl-methyl)-1H-pyrazol-3-yl]-amide]",0.682
13,"CCOc1ccc(F)c(OC2=CC(=O)N([C@@H](CC(C)C)C(=O)Nc3cnc([C@H](O)CO)cn3)C2)c1F [Example 153, (S)-2-[4-(3-Ethoxy-2,6-difluoro-phenoxy)-2-oxo-2,5-dihydro-pyrrol-1-yl]-4-methyl-pentanoic acid [5-((S)-1,2-dihydroxy-ethyl)-pyrazin-2-yl]-amide]",0.207
14,"CC(C)C[C@@H](C(=O)Nc1ccn(C[C@@H](O)CO)n1)N1CC(Oc2ccc3c(c2)OCCO3)=CC1=O [Example 168, (S)-2-[4-(2,3-dihydro-benzo[1,4]dioxin-6-yloxy)-2-oxo-2,5-dihydro-pyrrol-1-yl]-4-methyl-pentanoic acid [1-((R)-2,3-dihydroxy-propyl)-1H-pyrazol-3-yl]-amide]",0.437
15,"COC1=CC(=O)N([C@@H](CC2CCCC2)C(=O)Nc2ccc(C(=O)O)cn2)C1 [Example 11, 6-[(S)-3-Cyclopentyl-2-(4-methoxy-2-oxo-2,5-dihydro-pyrrol-1-yl)-propionylamino]-nicotinic acid]",3.99
16,"CC(C)C[C@@H](C(=O)Nc1ccn(CC(=O)O)n1)N1CC(Oc2cccc(C3CC3)c2F)=CC1=O [Example 149, (3-{(S)-2-[4-(3-Cyclopropyl-2-fluoro-phenoxy)-2-oxo-2,5-dihydro-pyrrol-1-yl]-4-methyl-pentanoylamino}-pyrazol-1-yl)-acetic acid]",1.196
17,"CC(C)C[C@@H](C(=O)Nc1ccn(C[C@H](O)CO)n1)N1CC(Oc2ccccc2Cl)=CC1=O [Example 175, (S)-2-[4-(2-Chloro-phenoxy)-2-oxo-2,5-dihydro-pyrrol-1-yl]-4-methyl-pentanoic acid [1-((S)-2,3-dihyrxy-propyl)-1H-pyrazol-3-yl]-amide]",0.138
18,"COc1cccc(OC2=CC(=O)N(C(CC(C)(C)F)C(=O)Nc3ccn(CC(C)(C)O)n3)C2)c1Cl (stereo not shown) [Example 171, 2-[4-(2-Chloro-3-methoxy-phenoxy)-2-oxo-2,5-dihydro-pyrrol-1-yl]-4-fluoro-4-methyl-pentanoic acid [1-(2-hydroxy-2-methyl-propyl)-1H-pyrazol-3-yl]-amide]",3.485
19,"CC(C)C[C@@H](C(=O)Nc1ccn(C[C@@H](O)CO)n1)N1CC(Oc2cc(F)ccc2F)=CC1=O [Example 101, (S)-2-[4-(2,5-Difluoro-phenoxy)-2-oxo-2,5-dihydro-pyrrol-1-yl]-4-methyl-pentanoic acid [1-((R)-2,3-dihydroxy-propyl)-1H-pyrazol-3-yl]-amide]",0.33
